Read-outs that look alike come from different tables or passages of the source.
What was measured:
[1] = molecular target: GST-tagged K-Ras mutant / His-tagged hSOS1 (Homo sapiens, UniProt P01116); assay: HTRF assay, K-Ras mutant / SOS1 interaction; type: binding; conditions: read-out: IC50 against mutant Kras
From the text: (§1) This assay can be also used to assess a selective inhibition of a mutant Ras protein relative to a wildtype, or relative to a different mutant Ras protein. For example, the equilibrium interaction of wildtype Kras or K-Ras mutant (e.g., wildtype or a mutant thereof including those mentioned in Example 6) with SOS1 (e.g., hSOS1) can be assessed as a proxy or an indication for a subject compound's ability to bind and inhibit Ras protein. HTRF assay detects from (i) a fluorescence resonance energy transfer (FRET) donor (e.g., antiGST-Europium) that is bound to GST-tagged K-Ras mutant to (ii) a FRET acceptor (e.g., anti-6His-XL665) bound to a His-tagged hSOS1.
(§2) The assay buffer can contain ˜5 mM HEPES pH 7.4, ˜150 mM NaCl, ˜ 1 mM DTT, 0.05% BSA and 0.0025% (v/v) Igepal. A Ras working solution is prepared in an assay buffer containing typically a suitable amount of the protein construct (e.g., GST-tagged K-Ras mutant) and the FRET donor (e.g., antiGST-Eu(K) from Cisbio, France). A SOS1 working solution is prepared in an assay buffer containing suitable amount of the protein construct (e.g., His-hSOS1) and the FRET acceptor (e.g., anti-6His-XL665 from Cisbio, France). A suitable amount of the protein construct will depend on the range of activity or range of IC50 values being detected or under investigation. For detecting IC50 within a range of 500 nM, the protein constructs of the same range of molarity can be utilized.
(§3) A fixed volume of DMSO with or without test compound is transferred into a 384-well plate. Ras working solution is added to all wells of the test plate. SOS1 working solution is added to all wells except for those that are subsequently filled the inhibitor control solution. Upon incubation for about 10 minutes or longer, the fluorescence is measured with a M1000Pro plate reader (Tecan) using HTRF detection (excitation 337 nm, emission 1: 620 nm, emission 2: 665 nm). Compounds are tested in duplicates at different concentrations (for example, 10 μM, 2.5 μM, 0.63 μM, 0.16 μM, 0.04 µM, 0.01 μM test compound). The ratiometric data (i.e., emission 2 divided by emission 1) is used to calculate IC50 values against Ras using GraphPad Prism (GraphPad software). Following this general procedure, samples were tested with or without a subject compound disclosed herein including compounds exemplified in Table 1 to assess their abilities to inhibit K-Ras signaling or their respective IC50 values against a given Ras protein (e.g., a given mutant K-Ras) of interest.

wildtype Kras / hSOS1 = molecular target: T1, wildtype Kras / hSOS1 (Homo sapiens, UniProt P01116); assay: HTRF assay, wildtype Kras / SOS1 interaction; type: binding; conditions: read-out: IC50 against wildtype Kras
T1 construct: made in house; host or cells: E. coli BL21 (DE3)
T1 sequence (P01116 1-188 isoform P01116-2): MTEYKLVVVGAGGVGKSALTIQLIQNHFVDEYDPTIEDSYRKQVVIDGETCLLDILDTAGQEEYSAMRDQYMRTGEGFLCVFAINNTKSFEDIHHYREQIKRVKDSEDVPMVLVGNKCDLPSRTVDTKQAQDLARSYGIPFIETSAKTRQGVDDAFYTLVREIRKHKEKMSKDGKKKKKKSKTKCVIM
From the text: as §1, §2, §3

[2] = compound nos. 102-196, general methodology of example 5

Chain of GST-tagged K-Ras mutant / His-tagged hSOS1 (P01116 whole entry G12D, form open): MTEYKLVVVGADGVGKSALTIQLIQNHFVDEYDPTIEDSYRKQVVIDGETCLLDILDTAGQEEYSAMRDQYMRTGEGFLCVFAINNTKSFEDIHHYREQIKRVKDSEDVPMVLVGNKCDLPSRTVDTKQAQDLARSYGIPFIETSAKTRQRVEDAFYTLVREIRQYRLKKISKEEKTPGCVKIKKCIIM

Row | SMILES | IC50 ([1]; compound nos. 401-703) | IC50 (wildtype Kras / hSOS1; compound nos. 401-703) | IC50 [1, 2] | IC50 (wildtype Kras / hSOS1; [2])
1 | Oc1cc(-c2cnc3c(N4CC5CCC(C4)N5)nc(OC[C@@]45CCCN4C[C@H](F)C5)nc3c2)c2ccccc2c1 (single isomer, unassigned) [Compound 429] | > 500 nM | < 500 nM |  | 
2 | Oc1cc(-c2cnc3c(N4CC5CCC(C4)N5)nc(OC[C@@]45CCCN4C[C@H](F)C5)nc3c2)c2ccccc2c1 (single isomer, unassigned) [Compound 610] | > 500 nM | > 500 nM |  | 
3 | CN1CCC[C@H]1COc1nc(N2CCNC3COCC32)c2cc(Cl)c(-c3cccc4sc(N)nc34)c(F)c2n1 (stereo partly drawn) [Compound 107, 4-(6-chloro-8-fluoro-4-(hexahydrofuro[3,4-b]pyr-azin-1(2H)-yl)-2-(((S)-1-methylpyrrolidin-2-yl)meth-oxy)quinazolin-7-yl)benzo-[d]thiazol-2-amine] |  |  | > 500 nM | > 500 nM
4 | Nc1nc2c(-c3c(Cl)cc4c(N5CCNCC(F)(F)C5)ncnc4c3F)cccc2s1 [Compound 110, 4-(6-chloro-4-(6,6-difluoro-1,4-diazepan-1-yl)-8-fluoro-quinazolin-7-yl)benzo[d]-thiazol-2-amine] |  |  | > 500 nM | > 500 nM
5 | Cc1ccnc(C(C)C)c1-n1c(=O)nc(N2CCNCC(F)(F)C2)c2cc(F)c(-c3cccc4sc(N)nc34)nc21 [Compound 111, 7-(2-aminobenzo[d]thiazol-4-yl)-4-(6,6-difluoro-1,4-diazepan-1-yl)-6-fluoro-1-(2-isopropyl-4-methylpyr-idin-3-yl)pyrido[2,3-d]pyr-imidin-2(1H)-one] |  |  | > 500 nM | > 500 nM
6 | Nc1nc2c(-c3c(Cl)cc4c(N5CCCCC(F)(F)C5)nc(OCC56CCCN5CCC6)nc4c3F)cccc2s1 [Compound 116, 4-(6-chloro-4-(3,3-difluoro-azepan-1-yl)-8-fluoro-2-((tetrahydro-1H-pyrrolizin-7a(5H)-yl)methoxy)quin-azolin-7-yl)benzo[d]thiazol-2-amine] |  |  | < 500 nM | < 500 nM
7 | Nc1nc2c(-c3c(Cl)cc4c(N5CCCCC(F)(F)C5)nc(OCC56CCCN5CCC6)nc4c3F)ccc(F)c2s1 [Compound 117, 4-(6-chloro-4-(3,3-difluoro-azepan-1-yl)-8-fluoro-2-((tetrahydro-1H-pyrrolizin-7a(5H)-yl)methoxy)quin-azolin-7-yl)-7-fluorobenzo-[d]thiazol-2-amine] |  |  | < 500 nM | < 500 nM
8 | N#CCC1CNCCN(c2nc(OCC34CCCN3CCC4)nc3c(F)c(-c4ccc(F)c5sc(N)nc45)c(Cl)cc23)C1 (stereo not drawn) [Compound 188, 2-(1-(7-(2-amino-7-fluoro-benzo[d]thiazol-4-yl)-6-chloro-8-fluoro-2-((tetra-hydro-1H-pyrrolizin-7a(5H)-yl)methoxy)quin-azolin-4-yl)-1,4-diazepan-6-yl)acetonitrile] |  |  | < 500 nM | 
9 | CN1CCC[C@H]1COc1nc(N2CCCC(NC3CC3)CC2)c2cc(Cl)c(-c3cccc4sc(N)nc34)c(F)c2n1 (stereo partly drawn) [Compound 590, 4-(6-chloro-4-(4-(cycloprop-ylamino)azepan-1-yl)-8-fluoro-2-(((S)-1-methylpyr-rolidin-2-yl)methoxy)quin-azolin-7-yl)benzo[d]thiazol-2-amine] | > 500 nM |  |  | 
10 | CN1CCC[C@H]1COc1nc(N2CCC(O)C(F)CC2)c2cc(Cl)c(-c3cccc4sc(N)nc34)c(F)c2n1 (stereo partly drawn) [Compound 675, 1-(7-(2-aminobenzo[d]-thiazol-4-yl)-6-chloro-8-fluoro-2-(((S)-1-methyl-pyrrolidin-2-yl)methoxy)-quinazolin-4-yl)-5-fluoro-azepan-4-ol] |  | > 500 nM |  | 

Further lines, results first:

Row | IC50 ([1]; compound nos. 401-703) | IC50 (wildtype Kras / hSOS1; compound nos. 401-703) | IC50 [1, 2] | IC50 (wildtype Kras / hSOS1; [2]) | SMILES
11 |  |  | < 500 nM | < 500 nM | CN1CCC[C@H]1COc1nc(N2CCNCC(F)(F)C2)c2cc(Cl)c(-c3cccc4sc(N)nc34)c(F)c2n1 [Compound 102, 4-(6-chloro-4-(6,6-difluoro-1,4-diazepan-1-yl)-8-fluoro-2-(((S)-1-methylpyrrolidin-2-yl)methoxy)quinazolin-7-yl)benzo[d]thiazol-2-amine]
12 |  |  | < 500 nM | < 500 nM | CN1CCC[C@H]1COc1nc(N2CCNCC(O)C2)c2cc(Cl)c(-c3cccc4sc(N)nc34)c(F)c2n1 (stereo partly drawn) [Compound 103, 1-(7-(2-aminobenzo[d]-thiazol-4-yl)-6-chloro-8-fluoro-2-(((S)-1-methyl-pyrrolidin-2-yl)methoxy)-quinazolin-4-yl)-1,4-diazepan-6-ol]
13 |  |  | < 500 nM | < 500 nM | CN1CCC[C@H]1COc1nc(N2CCNCC(F)(F)C2)c2cc(Cl)c(-c3ccc(F)c4sc(N)nc34)c(F)c2n1 [Compound 104, 4-(6-chloro-4-(6,6-difluoro-1,4-diazepan-1-yl)-8-fluoro-2-(((S)-1-methylpyrrolidin-2-yl)methoxy)quinazolin-7-yl)-7-fluorobenzo[d]thiazol-2-amine]
14 |  |  | < 500 nM | < 500 nM | Nc1nc2c(-c3c(Cl)cc4c(N5CCNCC(F)(F)C5)nc(OCC56CCCN5CCC6)nc4c3F)cccc2s1 [Compound 105, 4-(6-chloro-4-(6,6-difluoro-1,4-diazepan-1-yl)-8-fluoro-2-((tetrahydro-1H-pyrrol-izin-7a(5H)-yl)methoxy)-quinazolin-7-yl)benzo[d]-thiazol-2-amine]
15 |  |  | < 500 nM | < 500 nM | CN1CCC[C@H]1COc1nc(N2CCOCC(F)(F)C2)c2cc(Cl)c(-c3ccc(F)c4sc(N)nc34)c(F)c2n1 [Compound 106, 4-(6-chloro-4-(6,6-difluoro-1,4-oxazepan-4-yl)-8-fluoro-2-(((S)-1-methylpyrrolidin-2-yl)methoxy)quinazolin-7-yl)-7-fluorobenzo[d]thiazol-2-amine]
16 |  |  | < 500 nM | < 500 nM | CN1CCC[C@H]1COc1nc(N2CCCCC(F)(F)C2)c2cc(Cl)c(-c3ccc(F)c4sc(N)nc34)c(F)c2n1 [Compound 108, 4-(6-chloro-4-(3,3-difluoro-azepan-1-yl)-8-fluoro-2-(((S)-1-methylpyrrolidin-2-yl)methoxy)quinazolin-7-yl)-7-fluorobenzo[d]thiazol-2-amine]
17 |  |  | < 500 nM | < 500 nM | Nc1nc2c(-c3c(Cl)cc4c(N5CCNCC(F)(F)C5)nc(OCC56CCCN5CCC6)nc4c3F)ccc(F)c2s1 [Compound 109, 4-(6-chloro-4-(6,6-difluoro-1,4-diazepan-1-yl)-8-fluoro-2-((tetrahydro-1H-pyrrol-izin-7a(5H)-yl)methoxy)-quinazolin-7-yl)-7-fluoro-benzo[d]thiazol-2-amine]
18 |  |  | < 500 nM | < 500 nM | CN1CCC[C@H]1COc1nc(N2CCNC(=O)C(F)(F)C2)c2cc(Cl)c(-c3ccc(F)c4sc(N)nc34)c(F)c2n1 [Compound 112, 1-(7-(2-amino-7-fluoro-benzo[d]thiazol-4-yl)-6-chloro-8-fluoro-2-(((S)-1-methylpyrrolidin-2-yl)meth-oxy)quinazolin-4-yl)-6,6-difluoro-1,4-diazepan-5-one]
19 |  |  | < 500 nM | < 500 nM | CN1CCC[C@@H]1COc1nc(N2CCNCC(F)(F)C2)c2cc(Cl)c(-c3cccc4sc(N)nc34)c(F)c2n1 [Compound 113, 4-(6-chloro-4-(6,6-difluoro-1,4-diazepan-1-yl)-8-fluoro-2-(((R)-1-methylpyrrolidin-2-yl)methoxy)quinazolin-7-yl)benzo[d]thiazol-2-amine]
20 |  |  | < 500 nM | < 500 nM | Nc1nc2c(-c3c(Cl)cc4c(N5CCOCC(F)(F)C5)nc(OCC56CCCN5CCC6)nc4c3F)cccc2s1 [Compound 114, 4-(6-chloro-4-(6,6-difluoro-1,4-oxazepan-4-yl)-8-fluoro-2-((tetrahydro-1H-pyrrolizin-7a(5H)-yl)methoxy)quin-azolin-7-yl)benzo[d]thiazol-2-amine]
21 |  |  | < 500 nM | < 500 nM | Nc1nc2c(-c3c(Cl)cc4c(N5CCOCC(F)(F)C5)nc(OCC56CCCN5CCC6)nc4c3F)ccc(F)c2s1 [Compound 115, 4-(6-chloro-4-(6,6-difluoro-1,4-oxazepan-4-yl)-8-fluoro-2-((tetrahydro-1H-pyrrol-izin-7a(5H)-yl)methoxy)-quinazolin-7-yl)-7-fluoro-benzo[d]thiazol-2-amine]

— patent publication US20240254129A1, “HETEROCYCLIC COMPOUNDS AND USES THEREOF” (Kumquat Biosciences Inc., priority 2021, published 2024)
